Experimental data published in patent publication US8309557B2, “Pyrimidin-4-ylpropanedinitrile derivatives, processes for their preparation and their use as herbicides and plant growth regulators” (Bayer Intellectual Property GmbH, priority 2009, dated 2012).

How the values were obtained:
Type in all cases: in vivo
Amaranthus retroflexus [1] = test: Herbicidal effect pre-emergence, AMARE; conditions: 320 g/hectare, visual grading after 3 weeks vs untreated controls
Source text: (§1) Seeds of mono- and dicotyledonous weed plants and crop plants are planted in wood-fiber pots in sandy loam and covered with earth. The compounds according to the invention, formulated in the form of wettable powders (WP) or as emulsion concentrates (EC), are then applied to the surface of the covering earth as aqueous suspension or emulsion at an application rate corresponding to 320 g/hectare at an application rate of 600 to 800 l of water/ha (converted) with the addition of 0.2% wetting agent.
(§2) Following treatment, the pots are placed in a greenhouse and kept under good growth conditions for the test plants. The visual grading of the damage to the test plants is carried out after a test time of 3 weeks in comparison to untreated controls (herbicidal effect in percent (%): 100% effect=plants have died off, 0% effect=as control plants).

Ipomoea purpurea [2] = test: Herbicidal effect post-emergence, PHBPU
Method: (§3) Seeds of mono- and dicotyledonous weed plants and crop plants are planted in wood-fiber pots in sandy loam, covered with earth and grown in a greenhouse under good growth conditions. 2 to 3 weeks after sowing, the test plants are treated in the single-leaf stage. The compounds according to the invention, formulated in the form of wettable powders (WP) or as emulsion concentrates (EC), are then sprayed onto the green plant parts as aqueous suspension or emulsion using an application rate of 600 to 800 l of water/ha (converted) with the addition of 0.2% by weight of wetting agent. After the test plants had been in the greenhouse for ca. 3 weeks under optimum growth conditions, the effect of the preparations is scored visually in comparison with untreated controls (herbicidal effect in percent (%): 100% effect=plants have died off, 0% effect=as control plants).

Setaria viridis [3] = test: Herbicidal effect post-emergence, SETVI
Method: as §3

Viola tricolor [4] = test: Herbicidal effect pre-emergence, VIOTR; conditions: 320 g/hectare, visual grading after 3 weeks vs untreated controls
Source text: as §1, §2

[5] = system: Polygonum (Fallopia) convolvulus; test: Herbicidal effect post-emergence, POLCO
Method: as §3

Veronica persica [6] = test: Herbicidal effect post-emergence, VERPE
Method: as §3

Echinochloa crus-galli = test: Herbicidal effect post-emergence, ECHCG
Method: as §3

Amaranthus retroflexus [7] = test: Herbicidal effect post-emergence, AMARE
Method: as §3

Stellaria media = test: Herbicidal effect post-emergence, STEME
Method: as §3

Matricaria inodora = test: Herbicidal effect post-emergence, MATIN
Method: as §3

Viola tricolor [8] = test: Herbicidal effect post-emergence, VIOTR
Method: as §3

Setaria viridis [9] = test: Herbicidal effect pre-emergence, SETVI; conditions: 320 g/hectare, visual grading after 3 weeks vs untreated controls
Source text: as §1, §2

Veronica persica [10] = test: Herbicidal effect pre-emergence, VERPE; conditions: 320 g/hectare, visual grading after 3 weeks vs untreated controls
Source text: as §1, §2

Abutilon theophrasti [11] = test: Herbicidal effect post-emergence, ABUTH
Method: as §3

[12] = system: Tripleurospermum inodorum; test: Herbicidal effect pre-emergence, MATIN; conditions: 320 g/hectare, visual grading after 3 weeks vs untreated controls
Source text: as §1, §2

Abutilon theophrasti [13] = test: Herbicidal effect pre-emergence, ABUTH; conditions: 320 g/hectare, visual grading after 3 weeks vs untreated controls
Source text: as §1, §2

Polygonum convolvulus = test: Herbicidal effect pre-emergence, POLCO; conditions: 320 g/hectare, visual grading after 3 weeks vs untreated controls
Source text: as §1, §2

Alopecurus myosuroides = test: Herbicidal effect pre-emergence, ALOMY; conditions: 320 g/hectare, visual grading after 3 weeks vs untreated controls
Source text: as §1, §2

Lolium multiflorum = test: Herbicidal effect pre-emergence, LOLMU; conditions: 320 g/hectare, visual grading after 3 weeks vs untreated controls
Source text: as §1, §2

Ipomoea purpurea [14] = test: Herbicidal effect pre-emergence, PHBPU; conditions: 320 g/hectare, visual grading after 3 weeks vs untreated controls
Source text: as §1, §2

Compound | Effect in % in respect of stated plant, AMARE (Amaranthus retroflexus [1]) [%] | Effect in % in respect of stated plant, PHBPU (Ipomoea purpurea [2]) [%] | Effect in % in respect of stated plant, SETVI (Setaria viridis [3]) [%] | Effect in % in respect of stated plant, VIOTR (Viola tricolor [4]) [%] | Effect in % in respect of stated plant, POLCO [5] [%] | Effect in % in respect of stated plant, VERPE (Veronica persica [6]) [%] | Effect in % in respect of stated plant, ECHCG (Echinochloa crus-galli) [%] | Effect in % in respect of stated plant, AMARE (Amaranthus retroflexus [7]) [%] | Effect in % in respect of stated plant, STEME (Stellaria media) [%] | Effect in % in respect of stated plant, MATIN (Matricaria inodora) [%] | Effect in % in respect of stated plant, VIOTR (Viola tricolor [8]) [%] | Effect in % in respect of stated plant, SETVI (Setaria viridis [9]) [%] | Effect in % in respect of stated plant, VERPE (Veronica persica [10]) [%] | Effect in % in respect of stated plant, ABUTH (Abutilon theophrasti [11]) [%] | Effect in % in respect of stated plant, MATIN [12] [%] | Effect in % in respect of stated plant, ABUTH (Abutilon theophrasti [13]) [%] | Effect in % in respect of stated plant, POLCO (Polygonum convolvulus) [%] | Effect in % in respect of stated plant, ALOMY (Alopecurus myosuroides) [%] | Effect in % in respect of stated plant, LOLMU (Lolium multiflorum) [%] | Effect in % in respect of stated plant, PHBPU (Ipomoea purpurea [14]) [%]
CNC.N#CC(C#N)c1nc(-c2ccc(Cl)cc2)nc(N)c1Cl [Compound 310] | 100 | 80 | 80 | 100 | 85 | 87 | 90 | 95 | 80 | 85 | 90 | 90 | 100 | 85 | 80 |  |  |  |  | 
CN(C)C.N#CC(C#N)c1nc(-c2ccc(Cl)cc2)nc(N)c1Cl [Compound 311] | 100 |  | 80 | 100 | 90 | 90 | 90 | 90 | 80 | 90 | 80 | 90 | 100 | 90 | 90 | 80 |  |  |  | 
N.N#CC(C#N)c1nc(-c2ccc(C(F)(F)F)cc2)nc(N)c1Cl [Compound 318] |  |  |  |  | 80 | 90 |  |  |  | 90 |  |  | 100 | 80 |  |  | 80 |  |  | 
N.N#CC(C#N)c1nc(-c2ccc(Cl)cc2F)nc(N)c1Cl [Compound 345] | 90 | 90 |  | 80 | 80 | 90 |  | 100 | 90 | 90 | 80 | 80 | 100 |  | 80 | 90 |  | 80 |  | 
COc1c(Cl)ccc(-c2nc(N)c(Cl)c(C(C#N)C#N)n2)c1F.N [Compound 359] | 100 | 80 | 80 |  | 90 |  | 90 | 100 |  | 90 |  | 90 | 100 | 80 | 100 | 90 |  |  | 80 | 
Cc1ccc(-c2nc(N)c(Cl)c(C(C#N)C#N)n2)c(F)c1F.N [Compound 387] |  |  |  |  | 100 | 80 | 90 | 100 |  |  |  |  | 100 | 90 |  |  |  | 80 |  | 
N#CC(C#N)c1nc(-c2ccc(Cl)cc2F)nc(N)c1Cl [compound 110] | 100 | 80 | 80 | 90 | 95 | 90 | 80 | 90 | 90 | 90 | 90 | 80 | 100 |  |  |  |  |  |  | 
Cc1ccc(-c2nc(N)c(Cl)c(C(C#N)C#N)n2)c(F)c1F [compound 202] | 90 |  |  |  | 90 |  | 90 | 100 |  | 80 |  |  | 100 | 90 |  |  |  |  |  | 100
N#CC(C#N)c1nc(-c2ccc(Br)cc2F)nc(N)c1Cl [compound 208] | 80 | 80 |  |  | 80 | 90 |  | 100 | 90 | 100 | 90 | 90 | 100 | 90 |  | 100 |  |  |  | 
N#CC(C#N)c1nc(C2CC2)nc(N)c1F [compound 248] |  |  |  |  |  | 90 |  | 80 | 80 | 80 |  |  | 90 |  | 80 |  |  |  |  | 80
N#CC(C#N)c1nc(C2CC2)nc(N)c1Cl [compound 249] | 90 | 90 |  | 95 | 90 | 100 | 90 | 93 | 80 | 90 | 87 |  | 90 | 83 | 90 | 90 | 90 |  |  | 85
CC(C)c1nc(N)c(Cl)c(C(C#N)C#N)n1 [compound 265] |  | 100 |  |  | 90 | 90 |  | 100 | 90 | 90 |  |  |  | 80 |  |  |  |  |  | 
CC(C)(C)c1nc(N)c(Cl)c(C(C#N)C#N)n1.N [compound 455] |  |  |  | 100 |  |  |  |  |  |  |  |  |  |  |  |  |  |  | 80 | 
